For data set [1], the system named is epilepsy associated with KCNT1 mutation (EIMFS). Description: Expanded access case study of highly purified CBD in a child with KCNT1 mutation associated EIMFS. The format is in vivo, human. As for the experimental part: The child was […] when they were enrolled in an expanded access compassionate use program for CBD. The patient was diagnosed with Epilepsy of Infancy with Migrating Focal Seizures (EIMFS).
This subject was treated with a highly purified extract of cannabidiol (CBD) obtained from a cannabis plant. Seizure frequency and severity was documented in seizure diaries at baseline (4-week pre-treatment period) and over the treatment period. At each visit quality of life changes, including mood, behaviour, and cognitive function were recorded in addition to global impression of change using a numerical scale.
The patient first presented with seizures on the first day of life. They experienced on average 14 seizures per day. The types of seizure that occurred were motor arrest; asymmetric tonic; clonic extremity movements, irregular breathing and cyanosis.
The patient had tried and failed seven different anti-epileptic drugs and at the time of treatment and continued on the ketogenic diet however their seizures remained refractory.
Pharmaceutical-grade plant-derived CBD oral solution was gradually titrated by 2 to 5 mg/kg increments up to a maximum dose of 25 mg/kg/day.
Laboratory testing for hematologic, liver, kidney function and concomitant AED levels was performed at baseline, and after every 4 weeks of CBD therapy.
The patient was treated for over three years and remains on treatment currently.

The nature of data set [2]: Solubility of drug substance in water. The format is physicochemical. The text has this:
Sesame oil was selected as an excipient to solubilize the drug substance.

Data set [3] has as its system secondary generalized epilepsy. As to conditions: eight adult patients; cited from earlier work.
The subject of data set [4] is seizures. The settings on record: 200 mg/day, four adult patients; cited from earlier work.
For data set [5], the system named is seizures. As to conditions: 200 mg/day, twelve institutionalized adult patients, open label; cited from earlier work.
The test system of data set [6] is seizures. As to conditions: mice, after pro-convulsant drugs or an electric current; cited from earlier work.
Data set [7] relates to seizures. As to conditions: rabbit, in vivo; cited from earlier work.
[8] abbreviates: one patient, oral CBD up to 25 mg/kg/day.

Regarding `C=C(C)[C@@H]1CCC(C)=C[C@H]1c1c(O)cc(CCCCC)cc1O` [CBD, Cannabidiol], in data set [1] (after 6 months of treatment), the “demeanour and developmental milestones (caregiver documented)” value is “more interactive and had attained new milestones including babbling, smiling, and fixing”. The “reduction in overall seizure frequency” value in data set [1] (after 16 weeks of treatment, 25 mg/kg/day, one patient) is 12%. Also, in data set [1] (after 16 weeks, 25 mg/kg/day), the “side effects at maximum dose” value was “without side effects”. Moreover, the “side effect on titration” value in data set [1] (initial 12 week period, CBD titrated too quickly) is recorded as “somnolence”. Further, the “overall seizure frequency increase compared to baseline” value in data set [1] (initial 12 weeks of treatment, maximum dose of 25 mg/kg/day not reached, one patient) came out at 13%. The seizure severity entry in data set [1] (one patient) was “clinically meaningful reduction in seizure severity”. Besides, in data set [1] (setting [8]), the “reduction in Type C seizures (irregular breathing, cyanosis and clonic extremity movements)” value was 93%; the “reduction in Type D seizures (most severe, asymmetric tonic seizures)” value amounted to 48%. In addition, the solubility in water result in data set [2] is recorded as “insoluble in water”. The “number of patients with marked reduction of seizures” value in data set [3] was 4. In addition, in the data set on seizures [4], the seizure freedom result was “two of the four patients became seizure free”. Further, in the data set on seizures [5], the control of seizures result is on record as “ineffective”. Also, the prevention of seizures result with seizures [6] is given as “able to prevent seizures”.
Consider `CCCCCc1cc(O)c2c(c1)OC(C)(C)[C@@H]1CCC(C)=C[C@@H]21` [THC, Tetrahydrocannabinol], for which, in the data set with seizures [7], the effect on convulsions entry is “pro-convulsant”.
